Here are results for twelve compounds from patent publication US7307088B2, “Substituted anthranilic amide derivatives and methods of use” (Amgen Inc., priority 2002, dated 2007).

A value given as a limit tells only on which side of the number the result lay.

This experiment relates to VEGF-stimulated HUVEC proliferation (Human Umbilical Vein Endothelial cells). The experiment is described as follows: HUVEC Proliferation Assay. In kind it is cell-based. Particulars: 72 h, CyQuant dye, read-out: inhibited VEGF-stimulated HUVEC proliferation at a level (IC50 values determined). How it is done:
Human Umbilical Vein Endothelial cells are purchased from Clonetics, Inc., as cryopreserved cells harvested from a pool of donors. These cells, at passage 1, are thawed and expanded in EBM-2 complete medium, until passage 2 or 3. The cells are trypsinized, washed in DMEM+10% FBS+antibiotics, and spun at 1000 rpm for 10 min. Prior to centrifugation of the cells, a small amount is collected for a cell count. After centrifugation, the medium is discarded, and the cells are resuspended in the appropriate volume of DMEM+10% FBS+antibiotics to achieve a concentration of 3×10^5 cells/mL. Another cell count is performed to confirm the cell concentration. The cells are diluted to 3×10^4 cells/mL in DMEM+10% FBS+antibiotics, and 100 μL of cells are added to a 96-well plate. The cells are incubated at 37° C. for 22 h.
Prior to the completion of the incubation period, compound dilutions are prepared. Five-point, five-fold serial dilutions are prepared in DMSO, at concentrations 400-fold greater than the final concentrations desired. 2.5 μL of each compound dilution are diluted further in a total of 1 mL DMEM+10% FBS+antibiotics (400× dilution). Medium containing 0.25% DMSO is also prepared for the 0 μM compound sample. At the 22 h timepoint, the medium is removed from the cells, and 100 μL of each compound dilution is added. The cells are incubated at 37° C. for 2-3 h.
During the compound pre-incubation period, the growth factors are diluted to the appropriate concentrations. Solutions of DMEM+10% FBS+antibiotics, containing either VEGF or bFGF at the following concentrations: 50, 10, 2, 0.4, 0.08, and 0 ng/mL are prepared. For the compound-treated cells, solutions of VEGF at 550 ng/mL or bFGF at 220 ng/mL for 50 ng/mL or 20 ng/mL final concentrations, respectively, are prepared since 10 μL of each will be added to the cells (110 μL final volume). At the appropriate time after adding the compounds, the growth factors are added. VEGF is added to one set of plates, while bFGF is added to another set of plates. For the growth factor control curves, the media on wells B4-G6 of plates 1 and 2 are replaced with media containing VEGF or bFGF at the varying concentrations (50-0 ng/mL). The cells are incubated at 37° C. for an additional 72 h.
At the completion of the 72 h incubation period, the medium is removed, and the cells are washed twice with PBS. After the second wash with PBS, the plates are tapped gently to remove excess PBS, and the cells are placed at −70° C. for at least 30 min. The cells are thawed and analyzed using the CyQuant fluorescent dye (Molecular Probes C-7026), following the manufacturer's recommendations. The plates are read on a Victor/Wallac 1420 workstation at 485 nm/530 nm (excitation/emission). Raw data are collected and analyzed using a 4-parameter fit equation in XLFit. IC50 values are then determined.

`CC(=O)N1CC(C)(C)c2ccc(NC(=O)c3ccccc3NCc3ccc(F)cc3)cc21` [Example 3, N-(1-Acetyl-3,3-dimethyl-2,3-dihydro-1H-indol-6-yl)-2-(4-fluoro-benzylamino)-benzamide]: the IC50 is less than 1 µM.
Regarding `CN1CCN(C(=O)N2CC(C)(C)c3ccc(NC(=O)c4ccccc4NCc4ccc(F)cc4)cc32)CC1` [Example 8, N-[3,3-Dimethyl-1-(4-methyl-piperazine-1-carbonyl)-2,3-dihydro-1H-indol-6-yl]-2-(4-fluoro-benzylamino)-benzamide], the IC50 is less than 1 µM.
Next, `CC(=O)N1CC(C)(C)c2ccc(NC(=O)c3ccccc3NCc3cc[n+]([O-])cc3)cc21` [Example 10, N-(1-Acetyl-3,3-dimthyl-2,3-dihydro-1H-indol-6-yl)-2-[(1-oxy-pyridin-4-ylmethyl)-amino]-benzamide]: less than 1 µM; `CC(=O)N1Cc2cc(NC(=O)c3ccccc3NCc3ccnc4ccccc34)ccc2C(C)(C)C1` [Example 13, N-(2-Acetyl-4,4-dimthyl-1,2,3,4-tetrahydro-isoquinolin-7-yl)-2-[(quinolin-4-ylmethyl)-amino]-benzamide]: less than 1 µM.
With `CC1(C)CNCc2cc(NC(=O)c3ccc(F)cc3NCc3ccc(F)cc3)ccc21` [Example 107, N-(4,4-Dimethyl-1,2,3,4-tetrahydro-isoquinolin-7-yl)-4-fluoro-6-(4-fluoro-benzylamino)-benzamide], the IC50 is less than 1 µM.
Turning to `CC1(C)CNCc2cc(NC(=O)c3cc(F)c(F)cc3NCc3ccc(F)cc3)ccc21` [Example 108, N-(4,4-Dimethyl-1,2,3,4-tetrahydro-isoquinolin-7-yl)-3,4-difluoro-6-(4-fluoro-benzylamino)-benzamide], the IC50 was less than 1 µM.
The same measure for `CC1(C)CNCc2cc(NC(=O)c3ccccc3NCc3c[nH]c4ncccc34)ccc21` [Example 113, N-(4,4-Dimethyl-1,2,3,4-tetrahydro-isoquinolin-7-yl)-2-[(1H-pyrrolo [2,3-b]pyridin-3-ylmethyl)-amino]-benzamide]: less than 1 µM.
Next, `CC1(C)CNCc2cc(NC(=O)c3ccccc3NCc3cccc4nccnc34)ccc21` [Example 124, N-(4,4-Dimethyl-1,2,3,4-tetrahydro-isoquinolin-7-yl)-2-[(quinoxalin-5-ylmethyl)-amino]-benzamide]: less than 1 µM; `CC(Nc1ccccc1C(=O)Nc1ccc2c(c1)CN(C(=O)OC(C)(C)C)CC2(C)C)c1ccnc(N)n1` (stereo not drawn) [Example 126, tert-Butyl 7-{2-[1-(2-amino-pyrimidin-4-yl)-ethylamino]-benzoylamino}-4,4-dimethyl-3,4-dihydro-1H-isoquinoline-2-carboxylate]: less than 1 µM.
Consider `CC(Nc1ccccc1C(=O)Nc1ccc2c(c1)CNCC2(C)C)c1ccnc(N)n1` (stereo not drawn) [Example 127, 2-[1-(2-Amino-pyrimidin-4-yl)-ethylamino]-N-(4,4-dimethyl-1,2,3,4-tetrahydro-isoquinolin-7-yl)-benzamide], for which the IC50 is less than 0.1 µM.
The same measure for `CNc1nccc([C@H](C)Nc2ccccc2C(=O)Nc2ccc3c(c2)CNCC3(C)C)n1` [Example 130, (S)—N-(4,4-Dimethyl-1,2,3,4-tetrahydro-isoquinolin-7-yl)-2-[1-(2-methylamino-pyrimidin-4-yl)-ethylamino]-benzamide]: less than 1 µM; for `CNc1nccc([C@@H](C)Nc2ccccc2C(=O)Nc2ccc3c(c2)N(C(C)=O)CC32CC2)n1` [Example 132, N-(1-Acetyl-1′,2′-dihydrospiro[cyclopropane-1,3′-[3H]indol]-6′-yl)-2-[[(1R)-1-[2-(methylamino)-4-pyrimidinyl]ethyl]amino]-benzamide]: less than 1 µM.
